In publication PMC9571290, “Preliminary Structure–Activity Relationship Study of the MMV Pathogen Box Compound MMV675968 (2,4-Diaminoquinazoline) Unveils Novel Inhibitors of Trypanosoma brucei brucei” (Molecules, 2022):
Read-outs that look alike come from different tables or passages of the source.

Experiments:
[1] = test system: DHFR; set-up: method as in PMID 7799402; settings: read-out: IC50 DHFR Pneumocystis carinii; cited from earlier work
[2] = test system: Toxoplasma gondii; set-up: method as in PMID 29133550; settings: read-out: IC50 against Toxoplasma gondii; cited from earlier work
[3] = test system: P. falciparum; set-up: method as in PMID 28674055; settings: cited from earlier work
[4] = test system: bloodstream forms of Trypanosoma brucei brucei; experiment: resazurin-based antitrypanosomal inhibition assay; type: cell-based
Protocol: Parasites were axenically cultivated in sterile vented flasks containing complete Hirumi’s modified Iscove’s medium 9 (HMI-9) [500 mL IMDM (Iscove’s modified Dulbecco’s medium) (Gibco, Waltham, MA, USA) supplemented with 10% (v/v) heat-inactivated fetal bovine serum (HIFBS) (Sigma Aldrich), 10% (v/v) serum plus (Sigma Aldrich), HMI-9 supplement (1 mM hypoxanthine, 0.16 mM thymidine, 50 µM bathocuproine disulfonic acid, 1.5 mM cysteine, 1.25 Mm pyruvic acid, 0.2 mM 2-mercaptoethanol (Sigma Aldrich)), and 1% (v/v) penicillin–streptomycin (Sigma Aldrich) and incubated at 37 °C in a 5% CO2 atmosphere.
The in vitro inhibitory potency of the 400 MMVPB compounds against bloodstream forms of Trypanosoma brucei brucei was evaluated using the resazurin-based inhibition assay as previously described. Briefly, parasites at their mid-logarithmic growth phase were counted, and the cell density was adjusted with fresh complete HMI-9 medium to 2 × 10^5 trypanosomes per mL. Then, 90 µL of parasite suspension was then distributed into the wells of 96-well flat-bottomed plates containing 10 µL of compounds for a final test concentration of 10 µM. […] Each assay plate was set up in duplicate and repeated two times. The percent parasite inhibition was determined for each compound based on fluorescence readouts relative to the mean fluorescence of negative control wells.
y = 100/[1+ 10^(logIC50/99-x)H], where H is the hill coefficient or slope factor [60].

[5] = test system: DHFR; set-up: method as in PMID 7799402; settings: read-out: IC50 DHFR Toxoplasma gondii; cited from earlier work
[6] = in vitro; settings: African green monkey
Protocol: (§1) The resulting pellet was resuspended and counted in a Neubauer chamber in the presence of trypan blue to exclude nonviable cells colored in blue. Once the cell load was estimated, they were either used for the next passage in a new flask or processed for the cytotoxicity assay.
(§2) Briefly, Vero cells at a density of 10^4 cells per well were plated in 100 µL of complete DMEM and incubated overnight to allow cell attachment. Plates were then controlled under an inverted fluorescence microscope (Lumascope LS520) to ensure adherence, sterility and cell integrity. Thereafter, culture medium from each well was carefully emptied, and plates were filled with 90 µL of fresh complete medium followed by the addition of 10 µL of serial 5-fold dilutions of compound solutions. […] Fluorescence was then read using a Magelan Infinite M200 fluorescence multiwell plate reader (Tecan) with excitation and emission wavelengths of 530 and 590 nm, respectively. The percentage of cell viability was calculated from readouts, and the median cytotoxic concentration (CC50) for each compound was deduced from concentration–response curves using GraphPad Prism 8.0 software as described above. Selectivity indexes were then determined for each test substance as follows: SI = CC50(Vero cells)/IC50(T. brucei brucei).

[7] = test system: Cryptosporidium parvum-I DHFR; set-up: method as in PMID 11709300; settings: in vitro; cited from earlier work
[8] = test system: Cryptosporidium parvum; set-up: method as in PMID 11709300; settings: read-out: IC50 phenotypic whole parasite testing; cited from earlier work
[9] = test system: Vero cells; experiment: cytotoxicity against Vero cells (resazurin viability assay); settings: read-out: CC50 Vero; Table 2
Protocol: as §1, §2

[10] = test system: kinetoplastids (T. brucei brucei and T. brucei rhodesiense); set-up: method as in MMV Pathogen Box supporting information; settings: against kinetoplastids; ref MMV Pathogen Box supporting information; read-out: Reported IC50; cited from earlier work
[11] = test system: T. b. brucei; set-up: method as in Duffy et al., 13; settings: ref Duffy et al., 13; read-out: IC50 against T. b. brucei; cited from earlier work
[12] = ferric ion reducing antioxidant power (FRAP); settings: Fe^3+-reducing activity
Protocol: Iron is one of the vital elements for all parasites, including trypanosomes, as it plays a key role in pathogenesis and the host immune response. Therefore, iron bioavailability reducing agents to the parasite could be potential candidates for drug development against trypanosomiasis. To this end, we determined the capacity of the test compounds to reduce iron from ferric to ferrous status using the method described by Benzie et al.. Briefly, 25 µL of each compound (7 and 10) was added to 25 µL of a solution of Fe^3+ prepared at 1.2 mg/mL in distilled water in a 96-well microplate. The plate was incubated for 15 min at room temperature in darkness, after which 50 µL of ortho-phenanthroline (0.2% in methanol) was added to achieve final compound concentrations ranging from 400 µM to 0.19 µM. Plates were reincubated for 15 min, and the absorbance was measured at 510 nm. Ascorbic acid was used as a positive control and tested at concentrations ranging from 100 to 0.048 μg/mL. The median reducing concentration (RC50) values of compounds were determined through sigmoidal concentration–response curves using GraphPad Prism version 8.0 software.

For `COc1ccc(OC)c(NCc2ccc3nc(N)nc(N)c3c2Cl)c1` [Analog 1, 2,4-diamino-5-chloro-6-[(2,5-dimethoxyanilino)methyl]quinazoline], the IC50 [1] is listed as 51 nM, the IC50 [2] is listed as 20 nM and the IC50 [3] is listed as 70 nM. For the same compound, the IC50 ([4]; Table 4, analogs of MMV675968, solid material, read-out: IC50 ± SD T. b. b.) was 2600 nM, the IC50 ([4]; Trypanosoma brucei, Table 3, MMVPB compounds with known potency against other diseases, read-out: IC50 ± SD T. b. b.) was 2800 ± 70 nM and the IC50 ([4]; Trypanosoma brucei, Table 3, negative log of IC50 in molar, read-out: pIC50 T. b. b. (converted)) was 2820 nM. The IC50 ([4]; Trypanosoma brucei, Table 4, analogs of MMV675968, solid material, read-out: IC50 ± SD T. b. b.) was 2600 to 2800 nM, the IC50 ([4]; Trypanosoma brucei, Table 4, negative log of IC50 in molar, read-out: pIC50 T. b. b. (converted)) was 2630 nM and the IC50 [5] was 30 nM. For the same compound, the CC50 at 48 h [6] was > 100000 nM, the IC50 [7] was 6.5 nM and the IC50 [8] was 200 nM.

In the case of `Cc1nn(C)c(C)c1NS(=O)(=O)c1c(Cl)cc(-c2ccnc(N3CCNCC3)c2)cc1Cl` [MMV688180], the IC50 ([4]; Table 2, MMVPB compounds with known anti-kinetoplastid activity, read-out: IC50 ± SD T. b. b.) is reported as 2.3 nM, the “pIC50 T. b. b.” value ([4]; Table 2, negative log of IC50 in molar) is reported as 8.64 and the IC50 ([4]; given in nM, read-out: IC50 against T. b. brucei) is reported as 2.3 nM. For the same compound, the CC50 [9] was > 100000 nM, the IC50 [10] was < 130 nM and the IC50 [11] was 10 nM.

With `O=C1O[C@H]([C@@H](O)CO)C(O)=C1O` [ascorbic acid, reference compound] the “median reducing concentration (RC50)” value [12] was 165 µM.
